The record followed here is US10328075B2, “Method of treatment and compounds for use therein” (Baker Heart and Diabetes Institute, priority 2015, dated 2019).

Test [1] addresses T1, hFPR1 (Homo sapiens, UniProt P21462).
T1 construct: expressed in transfected cells
T1 sequence (P21462 1-350): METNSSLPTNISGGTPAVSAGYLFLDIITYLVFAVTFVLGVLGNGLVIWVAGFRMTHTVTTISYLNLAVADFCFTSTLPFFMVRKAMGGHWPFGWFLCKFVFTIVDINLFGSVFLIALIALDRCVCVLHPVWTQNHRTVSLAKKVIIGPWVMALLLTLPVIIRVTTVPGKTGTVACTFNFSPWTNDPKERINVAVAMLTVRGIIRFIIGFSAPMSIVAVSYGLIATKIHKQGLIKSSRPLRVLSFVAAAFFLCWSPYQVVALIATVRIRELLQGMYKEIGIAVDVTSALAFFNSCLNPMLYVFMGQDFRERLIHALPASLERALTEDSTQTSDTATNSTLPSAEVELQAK
Briefly: Akt1/2/3 (Ser473) phosphorylation in hFPR1-FlpIn-CHO cells. It counts as cell-based. An excerpt: (§1) cDNDA construct and generation of stable cell lines: cDNA in pcDNA3.1^+ encoding the human formyl peptide receptors (FPR) subtypes, hFPR1, hFPR2 and hFPR3 was obtained from Invitrogen. The sequences for 3 hFPR receptors were amplified by PCR and cloned into the Gateway entry vector, pDONR202™, using the BP clonase enzyme mix, according to the manufactures' instructions (Invitrogen Inc, Carlsbad, Calif., USA). All hFPR receptors constructs in pDONR201™ were subsequently transfected into the pEF5/FRT/V5/dest vector using the LR clonase enzyme mix (Invitrogen). Receptor constructs (pEF5/FRT/V5/dest) were used to transfect FIp-In CHO cells as described previously (Valant C et al., PNAS, 2014). Cells were selected using 500 μg/mL hydromycin to generate cell lines stably expressing each receptor construct. Cells were maintained and cultured in high glucose DMEM supplemented with 10% FBS, 16 mM HEPES and 500 μg/mL hydromycin at 37° C. under a humidified atmosphere containing 5% CO2.
(§2) In the various assays described below, cells were plated into 96-well transparent cell culture plates at 4×10^4 cells per well, cultured overnight in serum-free media at 37° C. in 5% CO2.
(§3) Measurement of Akt1/2/3 phosphorylation and Akt 1: The same lysate was used for measurement of Akt1/2/3 phosphorylation (Ser473) and Akt1 (Thr308). Cells were lysed in SureFire lysis buffer and transferred to 384-well opaque proxiplates. Under low-light conditions, a 1:10:40 (v:v:v) dilution of AlphaScreen acceptor beads:Surefire activation buffer:Surefire reaction buffer was prepared and the plate was incubated in the dark at RT for 2 h. Then, a 1:20 (v:v) dilution of AlphaScreen donor beads/dilution was prepared and incubated in the dark at RT for another 2 h, before the fluorescence signal was measured by used of a Fusion-α plate reader (PerkinElmer Life and Analytical Sciences) with standard AlphaScreen settings. Receptor mediated phosphorylation of Akt1/2/3 (Ser473) and Akt1 (Thr308) were determined using the AlphaScreen™ […] SureFire™ kit, as per as per manufacturer's instructions. Data were normalized to the maximal response elicited by 10% (v:v) FBS at the same time point.
(§4) Data analysis: All data were analysed using GraphPad Prism 6.0 (GraphPad Software, San Deigo, Calif., USA). Where appropriate, concentration-response curves were fitted to derive the maximal agonist effect (Emax), and the ligand potency estimate (pEC50), where Emax is the maximal possible response of the system (not the agonist), basal is the basal level of response in the absence of agonist, and pEC50 is the negative logarithm of the agonist concentration that gives a response halfway between Emax and basal.
(§5) In the present study, FIp-IN CHO cells and Gateway plasmid were obtained from Invitrogen Inc (Carlsbad, Calif., USA). The sequences for all 3 known human FPRs (hFPR1, hFPR2 and hFPR3) were amplified by PCR and cloned into the Gateway entry vector, pDONR202TM, using the BP clonase enzyme mix, according to the manufacturers' instructions. The hFPR pDONR201TM constructs were subsequently transfected into the pEF5/FRT/V5/dest vector using the LR clonase enzyme mix (Invitrogen). Receptor constructs (pEF5/FRT/V5/dest) were used to transfect FIp-IN CHO cells, as described previously (Valant et al. 2014). Cells were selected using 500 μg/mL hydromycin to generate cell lines stably expressing each human receptor construct. Cells were maintained and cultured in high glucose Dulbecco's modified eagle medium (DMEM) supplemented with 10% fetal bovine serum (FBS, from JRH Biosciences, Lenexa, Kans., USA) and 500 μg/mL hydromycin B (Invitrogen Inc) at 37° C. under a humidified atmosphere containing 5% CO2. Cell were plated into 96-well transparent cell culture plates at 4×10^4 cells per well, cultured overnight in serum-free media at 37° C. in 5% CO2.

Test [2] has as its target T1, hFPR1. The experiment in a line: Akt (Thr308) phosphorylation in hFPR1-FlpIn-CHO cells. It counts as cell-based.
Description: as §1, §2, §3, §4, §5

The mark [3] stands for this setting: Table 8, normalized transduction coefficient, reference agonist Cmpd43.
Setting [4] is: Table 8, transduction coefficient.

On to `CC(C)C1C(NC(=O)Nc2ccc(Cl)cc2)C(=O)N(c2ccccc2)N1C` (stereo not drawn) [BIDI-002], for which the Emax worked out at 13 ± 3% in test [1] (Table 3, percentage of Akt1/2/3 phosphorylation elicited by 10% FBS, read-out: Emax (%), Akt 1/2/3 (Ser473), hFPR1-Flpln-CHO); 13 ± 3% in test [1] (Table 8, percent of response elicited by 10% FBS, read-out: Emax, Akt 1/2/3 (Ser473) phosphorylation, hFPR1-Flpln-CHO); 15 ± 4% in test [2] (Table 3, percentage of Akt1/2/3 phosphorylation elicited by 10% FBS, read-out: Emax (%), Akt 1 (Thr308) phosphorylation, hFPR1-Flpln-CHO); 15 ± 4% in test [2] (Table 8, percent of response elicited by 10% FBS, read-out: Emax, Akt 1/2/3 (Thr308) phosphorylation, hFPR1-Flpln-CHO). Also, the EC50 in test [1] (Table 3, read-out: pEC50, Akt 1/2/3 (Ser473), hFPR1-Flpln-CHO (converted)) is 87.1 nM; in test [1] (Table 8, read-out: pEC50, Akt 1/2/3 (Ser473) phosphorylation, hFPR1-Flpln-CHO (converted)), 79.4 nM; in test [2] (Table 3, read-out: pEC50, Akt 1 (Thr308) phosphorylation, hFPR1-Flpln-CHO (converted)), 129 nM; in test [2] (Table 8, read-out: pEC50, Akt 1/2/3 (Thr308) phosphorylation, hFPR1-Flpln-CHO (converted)), 126 nM. Further, in test [1] (setting [3]), the “ΔLog(τ/KA), Akt 1/2/3 (Ser473) phosphorylation, hFPR1-Flpln-CHO” value is recorded as 0.0. In test [1] (setting [4]), the “Log(τ/KA), Akt 1/2/3 (Ser473) phosphorylation, hFPR1-Flpln-CHO” value is on record as 6.9 ± 0.3. Moreover, in test [2] (setting [3]), the “ΔLog(τ/KA), Akt 1/2/3 (Thr308) phosphorylation, hFPR1-Flpln-CHO” value is listed as 0.0. Further, the “Log(τ/KA), Akt 1/2/3 (Thr308) phosphorylation, hFPR1-Flpln-CHO” value in test [2] (setting [4]) came out at 6.9 ± 0.3.
